“Also recorded” adds a separate entry of the source.
What was measured:
Calu-3 cells [1] = assay: Calu-3 cell uptake, FIA-TOFMS; type: in vitro ADME, human; settings: 50 µg/mL; for Concentration [pg/µL] 1 in cell extract / Normalized concentration [pg/cell] 1: replicate 1; for Concentration [pg/µL] 2 in cell extract / Normalized concentration [pg/cell] 2: replicate 2; for Concentration [pg/µL] 3 in cell extract / Normalized concentration [pg/cell] 3: replicate 3
Method: At 4, 12, and 24 h after addition, cell extracts were generated in triplicates. To that end, the medium was aspirated from the respective wells, and cells were washed with pre-warmed ammonium carbonate solution (75 mM, pH 7.4, 37 °C). Immediately after removal of the wash solvent, 300 μL cold extraction solvent (40:40:20 acetonitrile:methanol:water, −20 °C) was added per well to lyse cells in situ and stop the enzymatic activity. The bottom of each well was subsequently scraped and the cell extracts were transferred to 96-well storage plates and stored at −80 °C until analysis. […] Quantification of SGC and SGD was performed using flow-injection time-of-flight mass spectrometry (FIA-TOFMS) in negative ion mode as described previously ([Fuhrer et al., 2011]). SGC and SGD signals were identified by matching accurate masses (for both [M-H]- at 707.2127 m/z). To account for possible influences of the complex matrix in the cell extract samples, a matrix-matched series of calibration samples were prepared, in which increasing concentrations of SGC were spiked into extracts of cells that had not previously been treated with either SGC or SGD. The calibration samples were injected alongside the cell extract samples and used to establish a calibration function using linear regression. The ion intensities measured were converted into SGC and SGD concentrations and normalized by the cell number in each sample, which was determined at each time point in separate cell cultures using trypan blue staining and cell counting in a Thermo Fisher Countess II Automated cell counter after trypsin-mediated cell detachment. This procedure eventually yielded estimates of SGC and SGD contents in pg/cell.

Calu-3 monolayer [2] = assay: TEER of Calu-3 monolayer before and after permeability study
[3] = mice, doses up to 100 mg/kg, ref Langeder et al., 2023b; cited from earlier work
Calu-3 cells [4] = assay: Calu-3 cell viability, MTT assay; settings: MTT
Calu-3 monolayer [5] = assay: bidirectional permeability across Calu-3 monolayer; settings: for concentration in the acceptor chamber (B-A): n = 3
[6] = UV-metric pKa measurement (SiriusT3); type: physicochemical; settings: experimental, SiriusT3, 25 °C, mean ± S.D.
Method: Experimental pKa (−log10 of the acid dissociation equilibrium constant) values of SGC and SGD were evaluated using the UV-metric pKa measurement method of the SiriusT3 automated titrator instrument and the corresponding software SiriusT3Control and SiriusT3Refine (Pion Inc., Billerica, USA). The SiriusT3 apparatus uses a deuterium lamp to determine the UV/Vis absorbance spectrum of the test solutions at each pH point. The standard aqueous UV-metric pKa measurement protocol was conducted according to manufacturer instructions. […] This was mixed with 25 μL phosphate buffer (14.7 mM K2HPO4 and 0.15 M KCl in MilliQ water) and diluted with 1.5 mL ionic strength-adjusted water (ISA water ≡ 0.15 M KCl in MilliQ water). The subsequent acid/base titration and measurement of UV absorbance was automatically performed by the SiriusT3 at 25.0 ± 0.5 °C. […] Turbidity was monitored by a turbidity sensor to ensure the absence of precipitation of the test compounds during the experiment, since accurate pKa measurements are limited to fully dissolved substances. In case turbidity occurred, individual titrations were not used for further analysis, resulting in a total of 11 analysable titrations across the 5 replicate samples for both SGC and SGD.

[7] = potentiometric logP, water-octanol (SiriusT3); type: physicochemical; settings: experimental, mean ± S.D., n = 3
Method: LogP (partition coefficient) evaluation was performed via SiriusT3. The potentiometric logP measurement relies on assessing the partition profile of the test substance within a two-phase water-octanol solvent system. Changes in the relative volume ratio of octanol to water lead to shifts in the apparent pKa, resulting from the partitioning between non-ionised and ionised forms. LogP values were then estimated based on these assessments.

SARS-CoV-2 = test system: SARS-CoV-2; design: method as in Wasilewicz et al., 2023; settings: reported to be based on inhibition of the viral main protease, ref Wasilewicz et al., 2023; read-out: anti-SARS-CoV-2 activity IC50; cited from earlier work
Calu-3 monolayer [8] = assay: MTT assay on Calu-3 monolayer after permeability study; type: cell-based, human; settings: after B-A permeability study
Method: To assess potential cytotoxic effects on the monolayer, cell culture medium (10% FBS, 1% P/S) containing 0.45 mg/mL MTT reagent was added to the inserts (300 µL) and wells (1500 µL). Cells treated with fluorescein (40 µg/mL) served as a control. Samples were then incubated for 3.5 hours at 37°C. Following incubation, the MTT solution was removed, and DMSO was added to dissolve the formazan crystals (300 µL for inserts; 1500 µL for wells). The plates were incubated on a shaking platform at 200 rpm in the absence of light for 30 minutes. Subsequently, 100 µL samples from each well were pipetted into a 96-well plate, and the absorbance was measured at 570 nm using an Epoch 2 spectrophotometer.

[9] = pH-dependent thermodynamic solubility, miniaturized shake-flask method, UPLC-PDA
[10] = control experiments for serum binding and adsorption to plastic
16HBE14o- cells = settings: cited from earlier work
in vitro = settings: human
Calu-3 cells [11] = settings: cited from earlier work
NHBE cells = settings: cited from earlier work

## sanggenon D [SGD]
Calu-3 cells [1]; 4 h
  intracellular content, Mean [pg/cell]: 0.3 ± 0.2 pg/cell
  Concentration [pg/µL] 1 in cell extract: 449 pg/µL
  Normalized concentration [pg/cell] 1: 0.23 pg/cell
  Concentration [pg/µL] 2 in cell extract: 281 pg/µL
  Normalized concentration [pg/cell] 2: 0.14 pg/cell
  Concentration [pg/µL] 3 in cell extract: 1158 pg/µL
  Normalized concentration [pg/cell] 3: 0.60 pg/cell
Calu-3 cells [1]; 4 h, listed as Sanggenon D
  intracellular content, Mean [pg/cell]: 0.32 pg/cell
Calu-3 cells [1]; 12 h
  intracellular content, Mean [pg/cell]: 0.54 pg/cell
  Concentration [pg/µL] 1 in cell extract: 1137 pg/µL
  Normalized concentration [pg/cell] 1: 0.57 pg/cell
  Concentration [pg/µL] 2 in cell extract: 1116 pg/µL
  Normalized concentration [pg/cell] 2: 0.55 pg/cell
  Concentration [pg/µL] 3 in cell extract: 1014 pg/µL
  Normalized concentration [pg/cell] 3: 0.50 pg/cell
Calu-3 cells [1]; 24 h
  intracellular content, Mean [pg/cell]: 0.69 pg/cell
  Concentration [pg/µL] 1 in cell extract: 1552 pg/µL
  Normalized concentration [pg/cell] 1: 0.59 pg/cell
  Concentration [pg/µL] 2 in cell extract: 2206 pg/µL
  Normalized concentration [pg/cell] 2: 0.84 pg/cell
  Concentration [pg/µL] 3 in cell extract: 1671 pg/µL
  Normalized concentration [pg/cell] 3: 0.63 pg/cell
Calu-3 monolayer [2]; 20 µg/mL in basolateral chamber, 2 h, Calu-3 batch 1
  change in TEER during permeability study, B-A direction: significant decrease in TEER values; also recorded: loss in TEER
Calu-3 monolayer [2]; B-A directed test wells after permeability study
  TEER after 24 h of incubating with medium at 37 °C: showed a recovery in TEER; also recorded: recovery to initial values
[3]
  serum and tissue concentrations after oral administration: low serum and tissue concentrations
Calu-3 cells [4]; 50 μg/mL, 4-h and 12-h incubation
  cytotoxic effects: no cytotoxic effects were observed
Calu-3 cells [4]; Calu-3 cells, 24 h exposure
  CC50: 120.5 µg/mL
Calu-3 monolayer [5]; B-A, 2 h, isolated SGD or extracts
  amount detected in the acceptor chamber (B-A): < 0.6%
Calu-3 monolayer [5]; SGD after applying MA21 600 μg/mL, B-A, 2 h
  concentration in the acceptor chamber (B-A): 7.9 ± 4.2 ng/mL
Calu-3 monolayer [5]; SGD after applying MA60 100 μg/mL, B-A, 2 h
  concentration in the acceptor chamber (B-A): 10.6 ± 5.7 ng/mL
Calu-3 monolayer [5]; abstract statement
  permeability across intact Calu-3 monolayers: no measurable permeability
Calu-3 monolayer [5]; applied as extracts MA60 (100 μg/mL) and MA21 (600 μg/mL), 2 h
  evidence for permeability of SGC or SGD: Neither by applying the isolated compounds nor the extracts MA60 and MA21, any evidence for the permeability of SGC or SGD was detectable
Calu-3 monolayer [5]; isolated SGD 20 μg/mL applied, B-A, 2 h
  concentration in the acceptor chamber (B-A): 35.4 ± 15.1 ng/mL
Calu-3 monolayer [5]; isolated compound 20 μg/mL, A-B
  detection in the acceptor chamber after 2 h of incubation (A-B direction): could not be detected
[6]
  pKa 1: 3.27 ± 0.37
  pKa 2: 6.37 ± 0.13
  pKa 3: 7.25 ± 0.32
  pKa 4: 7.99 ± 0.26
  pKa 5: 8.99 ± 0.08
  pKa 6: 9.94 ± 0.04
  pKa 7: 10.78 ± 0.01
  pKa 8: 12.04 ± 0.07
[7]
  logP: 2.92 ± 0.07
SARS-CoV-2
  IC50: 13.9 µM
Calu-3 monolayer [8]
  cytotoxic effects on Calu-3 monolayer after permeability study (MTT): Neither batch 1 nor batch 2 showed a decrease in cell viability; also recorded: no cytotoxic effects
[9]; compound within extract MA21, pH 1.2
  pH 1.2 solubility: < LOQ
[9]; compound within extract MA21, pH 4.5
  pH 4.5 solubility: < LOQ
[9]; compound within extract MA21, pH 6.8
  pH 6.8 solubility: < LOQ
[9]; compound within extract MA21, pH 7.4
  pH 7.4 solubility: < LOQ
[9]; compound within extract MA60, pH 1.2
  pH 1.2 solubility: 20.6 µg/mL
[9]; compound within extract MA60, pH 4.5
  pH 4.5 solubility: 19.7 µg/mL
[9]; compound within extract MA60, pH 6.8
  pH 6.8 solubility: 56.8 µg/mL
[9]; compound within extract MA60, pH 7.4
  pH 7.4 solubility: 94.9 µg/mL
[9]; isolated compound, HCl buffer pH 1.2, 24 h, 24 °C
  pH 1.2 solubility: 111 µg/mL
[9]; isolated compound, acetate buffer pH 4.5, 24 h, 24 °C
  pH 4.5 solubility: 121 µg/mL
[9]; isolated compound, phosphate buffer pH 6.8, 24 h, 24 °C
  pH 6.8 solubility: 304 µg/mL
[9]; isolated compound, phosphate buffer pH 7.4, 24 h, 24 °C
  pH 7.4 solubility: 493 µg/mL
[10]
  binding to serum proteins: no indication that SGC or SGD bind to serum proteins

## COCCc1ccc(OCC(O)CNC(C)C)cc1 (stereo not drawn) [metoprolol]
16HBE14o- cells
  Papp: 24.5 ± 2.5 × 10^−6 cm/s
In vitro
  Papp A→B at 2 h, 500 μM: 25.4 ± 6.9 ×10⁻⁶ cm/s
  Papp B→A at 2 h, 500 μM: 23.3 ± 4.9 ×10⁻⁶ cm/s
Calu-3 cells [11]
  Papp: 10.3 ± 0.0 × 10^−6 cm/s
NHBE cells
  Papp: 11.3 ± 0.7 × 10^−6 cm/s

Reference: publication PMC11381475, “Biopharmaceutical profiling of anti-infective sanggenons from Morus alba root bark for inhalation administration” (International Journal of Pharmaceutics: X, 2024)
